Reference: US20250115577A1, “BCL-2 Inhibitors” (Eil Therapeutics, Inc., priority 2021, published 2025)

Legend:
RS4-11 cells = assay: Cell viability assay (CellTiter-Glo), RS4-11; assay type: cell-based; settings: Homo sapiens, RS4-11, 72 h, 3 days of incubation
Description: (§1) Example D. Cell Viability Assays (Cell lines HEK293, RS4-11, MOLT-4)
(§2) Cells were seeded at a density of 4000 cells per well in the 384-well clear bottom plate (Greiner Cat #781090) to the 45 μL total volume of either DMEM (PanEco, Cat #C420, for HEK293) or RPMI (PanEco, Cat #C330, for other cell lines) with 10% FBS(HyClone Cat #SV30160.03). Prior to adding compounds, the HEK293 cells were allowed to adhere overnight at 37° C. and 5% CO2. The 500× compounds solutions in DMSO(Sigma Cat #D2650) were dispersed into a 384-well compound plate (Diamond Well Plate, Axigen, Cat #P-384-120 SQ-C—S) including only DMSO control. The 1 μL aliquots of the 500× compounds from the compound plate were added to 49 μL of culture medium in the Dilution plate (Diamond Well Plate, Axigen, Cat #P-384-120 SQ-C—S), mixed and then the 5 μL aliquts of the 10× compound solutions were transferred to cells followed by centrifugation at 100 g for 1 min. Final DMSO concentration was 0.2%. After 3 days of incubation the 10 μL aliquots of CellTiter-Glo (Promega, CAT #G7572) were added to the cells, plate was centrifuged at 100 g for 1 min and the luminescence was measured on the CLARIOstar Plus (BMG LABTECH) instrument.
(§3) Instrumentation: CLARIOstar Plus (BMG LABTECH); Biomek FX for liquid handling (Beckman Coulter).

BCL-xL = BCL-xL (Homo sapiens (Human), UniProt Q07817); assay: BCL-xL TR-FRET Assay (primary PPI inhibition); assay type: binding; settings: 60 min incubation, read-out: BCLxL IC50
Description: Example B. BCL-xL TR-FRET Assay (BPS Bioscience, #50223)
The following assay concentrations and times were used: 10.5 ng of BCL-xL, 5 μL of 1:120 anti-His Tb-labeled donor, 5 μL of 1:120 Dye-labeled acceptor, 5 μL of 1:96 BCL-xL Peptide Ligand, 2 μL of 200× test compound, with 60 min incubation time (final concentration of DMSO 0.5%). The results of the assay were read using a plate reader with the following parameters: TR FRET, 340ex/620 and 665em; 60 usec Delay; and 500 usec integration.
as §3

MOLT-4 cells = assay: Cell viability assay (CellTiter-Glo), MOLT-4; assay type: cell-based; settings: Homo sapiens, 72 h, 3 days of incubation
Description: as §1, §2, §3

[1] = Cell viability assay (CellTiter-Glo), HEK293; assay type: cell-based; settings: human, HEK293 cells, 3 days of incubation
Description: as §1, §2, §3

[2] = test system: caspase-3 and -7 activities in RS4-11 cells; assay: Caspase-3/7 activation (Caspase-Glo 3/7) in RS4-11 cells; assay type: cell-based; settings: Homo sapiens, 3.5 h, read-out: Cas-3/7 EC50
Description: Example E. Caspase-3/7 Activation
Assay Principle: The Caspase-Glo 3/7 Assay is homogeneous, luminescent assay that measures caspase-3 and -7 activities. The assay provides a luminogenic caspase-3/7 substrate, which contains the tetrapeptide sequence DEVD, in a reagent optimized for caspase activity.
Assay Procedure: Incubate RS4-11 (ATCC, CRL-1873) cells in the 384-well white plate (Corning, #3570) with varying concentrations of test compounds for 3.5 h in a humidified incubator at 37° C. and 5% CO2 […]. Add 15 μL of the Caspase-Glo (Promega, #8212) reagent to each well and to incubate the plate for 30 min at rt. Read on the CLARIOstar Plus (BMG LABTECH) instrument.
as §3

BCL-2 = BCL-2 (Homo sapiens (Human), UniProt P10415); assay: BCL-2 TR-FRET Assay (primary PPI inhibition); assay type: binding; settings: 60 min incubation, read-out: BCL2 IC50
Description: Example A. BCL-2 TR-FRET Assay (BPS Bioscience, #50222)
The following assay concentrations and times were used: 3 ng of BCL-2, 5 μL of 1:100 anti-His Tb-labeled donor, 5 μL of 1:100 Dye-labeled acceptor, 5 µL of 1:40 BCL-2 Peptide Ligand, and 2 μL of 200× test compound, with 60 min incubation time (final concentration of DMSO 0.5%). The results of the assay were read using a plate reader with the following parameters: TR FRET, 340ex/620 and 665em; 60 usec Delay; and 500 usec integration.
as §3

Chain of BCL-xL (Q07817 whole entry): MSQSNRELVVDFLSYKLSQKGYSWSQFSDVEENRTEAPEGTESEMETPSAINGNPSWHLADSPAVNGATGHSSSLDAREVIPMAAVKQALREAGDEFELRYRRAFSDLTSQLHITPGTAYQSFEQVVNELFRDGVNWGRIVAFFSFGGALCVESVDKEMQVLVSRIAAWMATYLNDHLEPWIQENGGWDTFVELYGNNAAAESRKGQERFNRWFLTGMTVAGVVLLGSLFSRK
Chain of BCL-2 (P10415 whole entry): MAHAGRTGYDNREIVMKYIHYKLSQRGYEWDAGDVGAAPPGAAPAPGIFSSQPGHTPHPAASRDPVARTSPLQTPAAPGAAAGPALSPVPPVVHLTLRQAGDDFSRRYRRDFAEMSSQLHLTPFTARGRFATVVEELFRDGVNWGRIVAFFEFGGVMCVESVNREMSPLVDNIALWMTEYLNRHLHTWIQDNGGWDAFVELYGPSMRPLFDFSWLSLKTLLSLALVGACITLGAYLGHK

Row | SMILES | CC50 (RS4-11 cells) | IC50 (BCL-xL) | CC50 (MOLT-4 cells) | CC50 at 3 days [1] | EC50 [2] | IC50 (BCL-2)
1 | COc1cc(-c2cc(C(=O)N(Cc3cccc(OC)c3C)c3ccc(O)cc3)c(C)n2C)c(C(=O)N2Cc3ccccc3C[C@H]2CN2CCOCC2)cc1C#N [Compound 58, 5-[4-cyano-5-methoxy-2-[(3S)-3-(morpholinomethyl)-3,4-dihydro-1H-isoquinoline-2-carbonyl]phenyl]-N-(4-hydroxyphenyl)-N-[(3-methoxy-2-methyl-phenyl)methyl]-1,2-dimethyl-pyrrole-3-carboxamide] | > 200 nM | 2000 to 5000 nM | ≤ 5000 nM | > 25000 nM | > 500 nM | > 50 nM
2 | COc1cccc(CN(C(=O)c2cc(-c3cc([N+](=O)[O-])ccc3C(=O)N3Cc4ccccc4C[C@H]3CN3CCOCC3)n(C)c2C)c2ccc(O)cc2)c1C [Compound 61, N-(4-hydroxyphenyl)-N-[(3-methoxy-2-methyl-phenyl)methyl]-1,2-dimethyl-5-[2-[(3S)-3-(morpholinomethyl)-3,4-dihydro-1H-isoquinoline-2-carbonyl]-5-nitro-phenyl]pyrrole-3-carboxamide] | ≤ 100 nM | > 5000 nM | ≤ 5000 nM | > 25000 nM | 200 to 500 nM | ≤ 5 nM
3 | COc1cc(-c2cc(C(=O)N(Cc3ccccc3C#N)c3ccc(Cl)cc3)c(C)n2C)c(C(=O)N2Cc3ccccc3C[C@H]2CN2CCOCC2)cc1C#N [Compound 59, N-(4-chlorophenyl)-5-[4-cyano-5-methoxy-2-[(3S)-3-(morpholinomethyl)-3,4-dihydro-1H-isoquinoline-2-carbonyl]phenyl]-N-[(2-cyanophenyl)methyl]-1,2-dimethyl-pyrrole-3-carboxamide] |  | 2000 to 5000 nM |  |  |  | > 50 nM
4 | COc1cccc(CN(C(=O)c2cc(-c3ccc(OC(F)F)cc3C(=O)N3Cc4ccccc4C[C@H]3CN3CCOCC3)n(C)c2C)c2ccc(Cl)cc2)c1C [Compound 12, N-(4-chlorophenyl)-5-[4-(difluoromethoxy)-2-[(3S)-3-(morpholinomethyl)-3,4-dihydro-1H-isoquinoline-2-carbonyl]phenyl]-N-[(3-methoxy-2-methyl-phenyl)methyl]-1,2-dimethyl-pyrrole-3-carboxamide] | > 200 nM | 2000 to 5000 nM | ≤ 5000 nM | > 25000 nM | > 500 nM | > 50 nM
5 | COc1cccc(CN(C(=O)c2cc(-c3cc(Cl)c(OC(F)F)cc3C(=O)N3Cc4ccccc4C[C@H]3CN3CCOCC3)n(C)c2C)c2ccc(Cl)cc2)c1C [Compound 32, 5-[5-chloro-4-(difluoromethoxy)-2-[(3S)-3-(morpholinomethyl)-3,4-dihydro-1H-isoquinoline-2-carbonyl]phenyl]-N-(4-chlorophenyl)-N-[(3-methoxy-2-methyl-phenyl)methyl]-1,2-dimethyl-pyrrole-3-carboxamide] | > 200 nM | 2000 to 5000 nM | ≤ 5000 nM | > 25000 nM | > 500 nM | > 50 nM
6 | COc1cccc(CN(C(=O)c2cc(-c3cc(F)c(OC(F)F)cc3C(=O)N3Cc4ccccc4C[C@H]3CN3CCOCC3)n(C)c2C)c2ccc(C#N)cc2)c1C [Compound 44, N-(4-cyanophenyl)-5-[4-(difluoromethoxy)-5-fluoro-2-[(3S)-3-(morpholinomethyl)-3,4-dihydro-1H-isoquinoline-2-carbonyl]phenyl]-N-[(3-methoxy-2-methyl-phenyl)methyl]-1,2-dimethyl-pyrrole-3-carboxamide] |  | 2000 to 5000 nM |  |  |  | > 50 nM
7 | COc1cccc(CN(C(=O)c2cc(-c3cc(Cl)c(OC(F)F)cc3C(=O)N3Cc4ccccc4C[C@H]3CN3CCOCC3)n(C)c2C)c2ccc(C#N)cc2)c1C [Compound 40, 5-[5-chloro-4-(difluoromethoxy)-2-[(3S)-3-(morpholinomethyl)-3,4-dihydro-1H-isoquinoline-2-carbonyl]phenyl]-N-(4-cyanophenyl)-N-[(3-methoxy-2-methyl-phenyl)methyl]-1,2-dimethyl-pyrrole-3-carboxamide] |  | 2000 to 5000 nM |  |  |  | > 50 nM
8 | COc1cc(-c2cc(C(=O)N(Cc3cccc(OC)c3C)c3ccc(Cl)cc3)c(C)n2C)c(C(=O)N2Cc3ccccc3C[C@H]2CN2CCOCC2)cc1C#N [Compound 60, N-(4-chlorophenyl)-5-[4-cyano-5-methoxy-2-[(3S)-3-(morpholinomethyl)-3,4-dihydro-1H-isoquinoline-2-carbonyl]phenyl]-N-[(3-methoxy-2-methyl-phenyl)methyl]-1,2-dimethyl-pyrrole-3-carboxamide] |  | 2000 to 5000 nM |  |  |  | > 50 nM
9 | COc1ccccc1CN(C(=O)c1cc(-c2cc(OC)c(C(N)=O)cc2C(=O)N2Cc3ccccc3C[C@H]2CN2CCOCC2)n(C)c1C)c1ccc(Cl)cc1 [Compound 63, 5-[4-carbamoyl-5-methoxy-2-[(3S)-3-(morpholinomethyl)-3,4-dihydro-1H-isoquinoline-2-carbonyl]phenyl]-N-(4-chlorophenyl)-N-[(2-methoxyphenyl)methyl]-1,2-dimethyl-pyrrole-3-carboxamide] | 100 to 200 nM |  | ≤ 5000 nM | 10000 to 25000 nM | > 500 nM | 10 to 50 nM
10 | COc1cccc(CN(C(=O)c2cc(-c3cc([N+](=O)[O-])ccc3C(=O)N3Cc4ccccc4C[C@H]3CN3CCOCC3)n(C)c2C)c2ccc3cn[nH]c3c2)c1C [Compound 67, N-(1H-indazol-6-yl)-N-[(3-methoxy-2-methyl-phenyl)methyl]-1,2-dimethyl-5-[2-[(3S)-3-(morpholinomethyl)-3,4-dihydro-1H-isoquinoline-2-carbonyl]-5-nitro-phenyl]pyrrole-3-carboxamide] |  | > 5000 nM |  |  |  | > 50 nM
11 | Cc1c(C(=O)N(Cc2ccccc2C#N)c2ccc3cn[nH]c3c2)cc(-c2cc([N+](=O)[O-])ccc2C(=O)N2Cc3ccccc3C[C@H]2CN2CCOCC2)n1C [Compound 66, N-[(2-cyanophenyl)methyl]-N-(1H-indazol-6-yl)-1,2-dimethyl-5-[2-[(3S)-3-(morpholinomethyl)-3,4-dihydro-1H-isoquinoline-2-carbonyl]-5-nitro-phenyl]pyrrole-3-carboxamide] |  | > 5000 nM |  |  |  | > 50 nM
12 | COc1cccc(CN(C(=O)c2cc(-c3cc(Cl)ccc3C(=O)N3Cc4ccccc4C[C@H]3CN3CCOCC3)n(C)c2C)c2ccc(C#N)cc2)c1C [Compound 33, 5-[5-chloro-2-[(3S)-3-(morpholinomethyl)-3,4-dihydro-1H-isoquinoline-2-carbonyl]phenyl]-N-(4-cyanophenyl)-N-[(3-methoxy-2-methyl-phenyl)methyl]-1,2-dimethyl-pyrrole-3-carboxamide] |  | 2000 to 5000 nM |  |  |  | > 50 nM
13 | COc1cccc(CN(C(=O)c2cc(-c3c(C)cc(Cl)cc3C(=O)N3Cc4ccccc4C[C@H]3CN3CCOCC3)n(C)c2C)c2ccc(O)cc2)c1C [Compound 50, 5-[4-chloro-2-methyl-6-[(3S)-3-(morpholinomethyl)-3,4-dihydro-1H-isoquinoline-2-carbonyl]phenyl]-N-(4-hydroxyphenyl)-N-[(3-methoxy-2-methyl-phenyl)methyl]-1,2-dimethyl-pyrrole-3-carboxamide] |  | 2000 to 5000 nM |  |  |  | > 50 nM
